From ChEMBL document CHEMBL1147290, “Toxicants from mangrove plants, V. Isolation of the piscicide, 2-hydroxy-5-methoxy-3-undecyl-1,4 benzoquinone (5-O-methylembelin) from Aegiceras corniculatum” (J Nat Prod, 1989) come the findings set out here.

For one series, the system named is Globisporangium ultimum. In words: Antifungal activity against Pythium ultimum at 1 mg. Format: functional. To be noted: read-out: IZ.
In another series the test system is Oreochromis niloticus. The series can be described thus: Toxicity in Tilapia nilotica at 1 ppm within 75 mins. As to conditions: in vivo, 1.25 h. Format: organism-based.

`CCCCCCCCCCCC1=C(O)C(=O)C=C(OC)C1=O` [5-O-METHYLEMBELIN]: in the series on Globisporangium ultimum, the zone of inhibition at 1000 µg/disc is 8 mm. Further, the Activity result in the series on Oreochromis niloticus is “Toxic”.
